Assay results reported in patent US10526352B2, “Tricyclic benzoxaborole compounds and uses thereof” (GlaxoSmithKline Intellectual Property (No.2) Limited, priority 2013, dated 2020).
≈ marks a conversion by molar mass, not a printed value. Like-named read-outs stand apart in the source and are kept apart here.

Key:
E. coli K12 = assay: General antimicrobial activity assay (CLSI broth microdilution); assay type: cell-based, Escherichia coli
Experimental: (§1) Whole-cell antimicrobial activity was determined by broth microdilution using the Clinical and Laboratory Standards Institute (CLSI) recommended procedure, Document M7-A7, “Methods for Dilution Susceptibility Tests for Bacteria that Grow Aerobically”.

E. coli K12 tolC::Tn10 = assay: as above; assay type: cell-based, Escherichia coli
Experimental: as §1

A. baumannii ATCC 17978 = assay: General antimicrobial activity assay (CLSI broth microdilution); assay type: cell-based, Acinetobacter baumannii
Experimental: as §1

P. aeruginosa PA01 = assay: as above; assay type: cell-based, Pseudomonas aeruginosa
Experimental: as §1

[1] = tested on: M. tuberculosis standard strain Mtb H37Rv; assay: MIC determination against mycobacteria (resazurin, Middlebrook 7H9); assay type: cell-based, Mycobacterium tuberculosis
[2] = tested on: M. tuberculosis clinical isolates; assay: MIC against clinical strains (BACTEC MGIT 960 System); assay type: cell-based; details: Mycobacterium tuberculosis
[3] = HepG2 Tox50 (A) / Mtb H37Rv MIC (B)
[4] = Mycobacterium tuberculosis, H37RV, read-out: Mtb H37Rv MIC (B)
[5] = Mycobacterium tuberculosis, H37RV; read-out: Mtb H37Rv MIC (B)

Row | Structure (SMILES) | MIC: E. coli K12 (E. coli K12) [µg/mL] | MIC: E. coli K12 tolC::Tn10 (E. coli K12 tolC::Tn10) [µg/mL] | Selectivity Index (A/B) (HepG2 cells; [3]) | HepG2 cell 48 h Tox50 (A) (HepG2 cells; human, 48 h) [µM] | MIC: A. baumannii ATCC 17978 (A. baumannii ATCC 17978) [µg/mL] | MIC: P. aeruginosa PA01 (P. aeruginosa PA01) [µg/mL] | MIC [1, 4] [µM] | HepG2 cell 48 h Tox50 (A) (HepG2 cells; 48 h) [µM] | other results
1 | NCC1OB2OCCOc3cccc1c32 (racemic) [Example C2-H, reference compound] | 2 (≈ 9.76 µM) | 4 (≈ 19.5 µM) | >26 | >50 | 2 (≈ 9.76 µM) | 2 (≈ 9.76 µM) | 1.88 (≈ 0.385 µg/mL) | – | –
2 | C[C@@]1(CO)COc2ccc(Cl)c3c2B(OC3CN)O1 (single isomer, unassigned) [Example 14, ((2S, 8R or 2R, 8S)-2-(aminomethyl)-3-chloro-8-methyl-7,8-dihydro-2H-1,6,9-trioxa-9a-borabenzo[cd]azulen-8-yl)methanol] | – | – | >4 | >50 | – | – | 1.25 (≈ 0.354 µg/mL) | – | –
3 | Cl.NCC1OB2OCCOc3ccc(Br)c1c32 (stereo not drawn) [Example 1, 3-bromo-7,8-dihydro-2H-1,6,9-trioxa-9a-borabenzo[cd]azulen-2-yl)methanamine Hydrochloride] | – | – | – | – | – | – | 0.18 | – | –
4 | Cl.NCC1OB2OCCOc3ccc(Br)c1c32 (stereo not drawn) [Example 1] | >64 | >64 | – | – | >64 | >64 | – | >50 | Selectivity Index (A/B) (HepG2 cells; hydrochloride): >277
5 | Cl.NCC1OB2OCCOc3ccc(Cl)c1c32 (stereo not drawn) [Example 3, 3-chloro-7,8-dihydro-2H-1,6,9-trioxa-9a-borabenzo[cd]azulen-2-yl)methanamine hydrochloride] | – | – | – | – | – | – | 0.47 | – | –
6 | Cl.NCC1OB2OCCOc3ccc(Cl)c1c32 (stereo not drawn) [Example 3] | >64 | >64 | – | – | >64 | >64 | – | >50 | Selectivity Index (A/B) (HepG2 cells; hydrochloride): >106
7 | Cl.NCC1OB2OCCOc3ccc(F)c1c32 (stereo not drawn) [Example 5, (3-fluoro-7,8-dihydro-2H-1,6,9-trioxa-9a-borabenzo[cd]azulen-2-yl)methanamine hydrochloride)] | – | – | – | – | – | – | 0.6 | – | –
8 | Cl.NCC1OB2OCCOc3ccc(F)c1c32 (stereo not drawn) [Example 5] | 32 | 64 | – | – | >64 | 4 | – | – | –
9 | Cl.NC[C@H]1OB2OCCOc3ccc(I)c1c32 [Example 6, (S)-(3-iodo-7,8-dihydro-2H-1,6,9-trioxa-9a-borabenzo[cd]azulen-2-yl)methanamine hydrochloride] | – | – | – | – | – | – | 0.3 | – | –
10 | CC1COc2ccc(Cl)c3c2B(O1)OC3CN.Cl (stereo not drawn) [Example 7, (3-chloro-8-methyl-7,8-dihydro-2H-1,6,9-trioxa-9a-borabenzo[cd]azulen-2-yl)methanamine Hydrochloride] | >64 | >64 | – | – | >64 | >64 | 0.2 | >50 | Selectivity Index (A/B) (HepG2 cells): >250
11 | CC1COc2ccc(Br)c3c2B(O1)OC3CN.Cl (stereo not drawn) [Example 8, (3-bromo-8-methyl-7,8-dihydro-2H-1,6,9-trioxa-9a-borabenzo[cd]azulen-2-yl)methanamine hydrochloride] | >64 | >64 | – | – | >64 | >64 | 0.3 | >50 | Selectivity Index (A/B) (HepG2 cells): >167
12 | CC1(C)COc2ccc(Br)c3c2B(OC3CN)O1.Cl (stereo not drawn) [Example 9, (3-bromo-8,8-dimethyl-7,8-dihydro-2H-1,6,9-trioxa-9a-borabenzo[cd]azulen-2-yl)methanamine hydrochloride] | >64 | >64 | – | – | >64 | >64 | 0.3 | >50 | Selectivity Index (A/B) (HepG2 cells; hydrochloride): >167
13 | CC1(C)COc2ccc(Br)c3c2B(O[C@@H]3CN)O1.Cl [Example 10, (S)-(3-bromo-8,8-dimethyl-7,8-dihydro-2H-1,6,9-trioxa-9a-borabenzo[cd]azulen-2-yl)methanamine Hydrochloride] | >64 | >64 | – | – | >64 | >64 | 0.16 | – | –
14 | CC1(C)COc2ccc(Cl)c3c2B(OC3CN)O1.Cl (stereo not drawn) [Example 11, (3-chloro-8,8-di methyl-7,8-dihydro-2H-1,6,9-trioxa-9a-borabenzo[cd]azulen-2-yl)methanamine Hydrochloride] | >64 | >64 | – | – | >64 | >64 | 0.27 | >50 | Selectivity Index (A/B) (HepG2 cells; hydrochloride): >185
15 | CC1(C)COc2ccc(Cl)c3c2B(O[C@@H]3CN)O1.Cl [Example 12, (S)-(3-chloro-8,8-dimethyl-7,8-dihydro-2H-1,6,9-trioxa-9a-borabenzo[cd]azulen-2-yl)methanamine Hydrochloride] | >64 | >64 | – | – | >64 | >64 | 0.08 | – | –
16 | Cl.NC[C@H]1OB2O[C@H](CO)COc3ccc(F)c1c32 [Example 13, ((2S,8R)-2-(aminomethyl)-3-fluoro-7,8-dihydro-2H-1,6,9-trioxa-9a-borabenzo[cd]azulen-8-yl)methanol Hydrochloride] | – | – | – | – | – | – | 0.55 | >50 | Selectivity Index (A/B) (HepG2 cells): >10
17 | C[C@]1(CO)COc2ccc(Cl)c3c2B(OC3CN)O1 (stereo partly drawn) [Example 15, ((2S, 8S, or 2R, 8R)-2-(aminomethyl)-3-chloro-8-methyl-7,8-dihydro-2H-1,6,9-trioxa-9a-borabenzo[cd]azulen-8-yl)methanol] | – | – | >50 | >50 | – | – | 0.93 (≈ 0.264 µg/mL) | – | –
18 | C[C@@]1(CO)COc2ccc(Br)c3c2B(OC3CN)O1 (stereo partly drawn) [Example 16, ((2S, 8R, or 2R, 8S)-2-(aminomethyl)-3-bromo-8-methyl-7,8-dihydro-2H-1,6,9-trioxa-9a-borabenzo[cd]azulen-8-yl)methanol] | – | – | >40 | >50 | – | – | 1.25 (≈ 0.41 µg/mL) | – | –
19 | c1cc2c3c(c1)OCCOB3OC2 [Example C1-H, reference compound] | – | – | – | – | – | – | – | – | MIC [1, 5]: 31 µM (≈ 5.46 µg/mL)
20 | NCCOc1cccc2c1B(O)OC2 [Example C3-H, reference compound] | – | – | >0.8 | – | – | – | – | >50 | MIC [1, 5]: 62 µM (≈ 12 µg/mL)
21 | CCOc1cccc2c1B(O)O[C@@H]2CN [Example C5-H, reference compound] | – | – | 3 | – | – | – | – | 1.8 | MIC [1, 5]: 0.6 µM (≈ 0.124 µg/mL)
22 | CC1COc2c(Cl)cc(Cl)c3c2B(O1)OC3CN (stereo not drawn) [Example C7-Cl2, reference compound] | – | – | >20 | >50 | – | – | 2.5 (≈ 0.72 µg/mL) | – | –
23 | CC1(C)COc2c(Cl)ccc3c2B(OC3CN)O1 (stereo not drawn) [Example C8-Cl, reference compound] | – | – | 10 | >50 | – | – | > 5 | – | –
24 | CC1(C)COB2OC(CN)c3c(Cl)ccc(c32)O1 (stereo not drawn) [Example C9-Cl, reference compound] | – | – | >10 | >50 | – | – | 5 (≈ 1.34 µg/mL) | – | –
25 | CC1(C)COB2OC(CN)c3cccc(c32)O1 (stereo not drawn) [Example C10-H, reference compound] | – | – | 10 | >50 | – | – | > 5 | – | –
26 | CC1COc2cccc3c2B(O1)OC3CN (stereo not drawn) [Example C11-H, reference compound] | 2 (≈ 9.13 µM) | 2 (≈ 9.13 µM) | >32 | > 50 | 4 (≈ 18.3 µM) | 2 (≈ 9.13 µM) | 1.56 (≈ 0.342 µg/mL) | – | HepG2 cell 48 h, figure in brackets beside Tox50 (HepG2 cells; 48 h, printed as >50 (40%)): 40%
27 | CC1(C)COc2cccc3c2B(OC3CN)O1 (stereo not drawn) [Example C12-H, reference compound] | 4 (≈ 17.2 µM) | 2 (≈ 8.58 µM) | >4.9 | 24.5 | 4 (≈ 17.2 µM) | 16 (≈ 68.6 µM) | > 5 | – | –
28 | NC[C@H]1OB2OCCOc3c(Cl)cc(Cl)c1c32 [Example C14-Cl2, reference compound] | – | – | >10 | >50 | – | – | > 5 | – | –
29 | NC[C@H]1OB2OCCOc3ccc(Cl)c1c32 [Example G4-Cl] | – | – | – | – | – | – | – | – | MIC ([2]; for all of but 1 of the 40 clinical isolate strains tested): < 1 µM; MIC ([2]; read-out: measured MIC (breakdown), for 1 strain of 97 clinical isolates): ≤ 0.2 µM; MIC ([2]; read-out: measured MIC (breakdown), for 3 strains of 97 clinical isolates): 0.31 µM (≈ 0.0742 µg/mL); MIC ([2]; read-out: measured MIC (breakdown), for 8 strains of 97 clinical isolates (first group)): 0.04 µM (≈ 0.00958 µg/mL); MIC ([2]; read-out: measured MIC (breakdown), for 8 strains of 97 clinical isolates (second group)): 0.16 µM (≈ 0.0383 µg/mL); MIC ([2]; read-out: measured MIC (breakdown), for 76 strains of 97 clinical isolates): 0.08 µM (≈ 0.0192 µg/mL)
